≈ marks a conversion by molar mass, not a printed value.

One test concerns Candida albicans GC 3066. Description: MIC by broth dilution. The format is cell-based. Conditions: GC3066, 18 h, Table 1, 18 hours at 35° C. On the procedure: (§1) The minimum inhibitory concentration (MIC), the lowest concentration of the antibiotic which inhibits growth of the test organism, is determined by the broth dilution method using Muller-Hinton II […] (Baltimore Biological Laboratories) following the recommendations of the National Committee for Clinical Laboratory Standards [Methods for dilution antimicrobial susceptibility tests for bacteria that grow aerobically. Approved standard M7-A2. National Committee for Clinical Laboratory Standards, Villanova, Pa].
(§2) An inoculum level of 5×10^5 CFU/ml, and a range of antibiotic concentrations (64–0.06 μg/ml) is used. The MIC is determined after the microtiter plates are incubated for 18 hours at 35° C. in an ambient air incubator. The test organisms comprise a spectrum of the Gram-positive bacteria Staphylococcus aureus, Streptococcus pneumoniae, and Enterococcus sp., the Gram-negative bacteria Escherichia coli, and the yeast Candida albicans. These organisms include recent clinical isolates that are resistant to methicillin and vancomycin. MIC data of Cyan-416 A–E are listed in Table 1 and MIC data of ester derivatives of Cyan-416 B (Formula I) are listed in Table 2.
For orientation: Dilution methods test growth across graded concentrations, often in twofold steps.
Take `COC(=O)c1c(O)ccc(O)c1C(=O)c1c(O)cc2c(c1O)[C@@H]1C=C[C@]3(C2)C(=C(O)c2c(O)cc(C)cc2[C@@H]3O)C1=O` [Example 3b, Cyan-416 B]: the MIC (commonly the lowest concentration found to suppress growth) is greater than 64 µg/mL.

For the next test, the system named is Enterococcus faecalis GC 2242. Description: MIC by broth dilution. The format is cell-based. The conditions noted are these: GC2242, Table 1, 18 hours at 35° C., read-out: MIC. On the procedure:
as §1, §2
For the compound `COC(=O)c1c(O)ccc(O)c1C(=O)c1c(O)cc2c(c1O)[C@@H]1C=C[C@]3(C2)C(=C(O)c2c(O)cc(C)cc2[C@@H]3O)C1=O` [Example 3b, Cyan-416 B], the minimum inhibitory concentration (MIC) came to 32 µg/mL (≈ 55.9 µM).

The test system of the next test is Enterococcus faecalis GC 4555. Kind of test: MIC by broth dilution. Format: cell-based. Conditions: GC4555, Table 1, 18 hours at 35° C., read-out: MIC. On the procedure: as §1, §2
As for `COC(=O)c1c(O)ccc(O)c1C(=O)c1c(O)cc2c(c1O)[C@@H]1C=C[C@]3(C2)C(=C(O)c2c(O)cc(C)cc2[C@@H]3O)C1=O` [Example 3b, Cyan-416 B], the MIC came out at 64 µg/mL (≈ 112 µM).

For the next test, the system named is Enterococcus faecalis GC 842. Description: MIC by broth dilution. Conditions: GC842, Table 1, 18 hours at 35° C. The format is cell-based. On the procedure: as §1, §2
`COC(=O)c1c(O)ccc(O)c1C(=O)c1c(O)cc2c(c1O)[C@@H]1C=C[C@]3(C2)C(=C(O)c2c(O)cc(C)cc2[C@@H]3O)C1=O` [Example 3b, Cyan-416 B] had a minimal inhibitory concentration (MIC) of 64 µg/mL (≈ 112 µM).

Another test has as its system Escherichia coli GC 2203. Kind of test: MIC by broth dilution. Conditions: GC2203, 18 h, Table 1, Escherichia coli GC 2203, 18 hours at 35° C. Format: cell-based. On the procedure: as §1, §2
`COC(=O)c1c(O)ccc(O)c1C(=O)c1c(O)cc2c(c1O)[C@@H]1C=C[C@]3(C2)C(=C(O)c2c(O)cc(C)cc2[C@@H]3O)C1=O` [Example 3b, Cyan-416 B] showed an MIC greater than 64 µg/mL.

Another test has as its system Escherichia coli GC 4560 (imp). Kind of test: MIC by broth dilution. The format is cell-based. The conditions noted are these: Escherichia coli, 18 h. On the procedure:
as §1, §2
`COC(=O)c1c(O)ccc(O)c1C(=O)c1c(O)cc2c(c1O)[C@@H]1C=C[C@]3(C2)C(=C(O)c2c(O)cc(C)cc2[C@@H]3O)C1=O` [Example 3b, Cyan-416 B] came in with an MIC of 64 µg/mL (≈ 112 µM).

The next test relates to Staphylococcus aureus GC 1131. Description: MIC by broth dilution. The format is cell-based. Conditions: GC1131, Table 1, 18 hours at 35° C., read-out: MIC. On the procedure: as §1, §2
In the case of `COC(=O)c1c(O)ccc(O)c1C(=O)c1c(O)cc2c(c1O)[C@@H]1C=C[C@]3(C2)C(=C(O)c2c(O)cc(C)cc2[C@@H]3O)C1=O` [Example 3b, Cyan-416 B], the MIC is 32 µg/mL (≈ 55.9 µM).

Another test has as its system Staphylococcus aureus GC 2216. Description: MIC by broth dilution. Format: cell-based. The conditions noted are these: GC2216, Table 1, 18 hours at 35° C., read-out: MIC. Here is the method:
as §1, §2
On to `COC(=O)c1c(O)ccc(O)c1C(=O)c1c(O)cc2c(c1O)[C@@H]1C=C[C@]3(C2)C(=C(O)c2c(O)cc(C)cc2[C@@H]3O)C1=O` [Example 3b, Cyan-416 B], for which the MIC was 32 µg/mL (≈ 55.9 µM).

Another test has as its system Staphylococcus aureus GC 4536. Kind of test: MIC by broth dilution. Format: cell-based. The conditions noted are these: GC4536, Table 1, 18 hours at 35° C. On the procedure: as §1, §2
The compound `COC(=O)c1c(O)ccc(O)c1C(=O)c1c(O)cc2c(c1O)[C@@H]1C=C[C@]3(C2)C(=C(O)c2c(O)cc(C)cc2[C@@H]3O)C1=O` [Example 3b, Cyan-416 B] yielded an MIC of 32 µg/mL (≈ 55.9 µM).

In a further test the test system is Pseudomonas aeruginosa GC 2214. Description: MIC by broth dilution. Format: cell-based. The conditions noted are these: GC2214, Table 1, 18 hours at 35° C.
On to `COC(=O)c1c(O)ccc(O)c1C(=O)c1c(O)cc2c(c1O)[C@@H]1C=C[C@]3(C2)C(=C(O)c2c(O)cc(C)cc2[C@@H]3O)C1=O` [Example 3b, Cyan-416 B], for which the minimum inhibitory concentration (MIC) is greater than 64 µg/mL.

The values are drawn from US7078556B2, “Antibiotics Cyan-416 A, Cyan-416 B, Cyan-416 C, Cyan-416 D and Cyan-416 E, and ester derivatives of Cyan-416 B” (Wyeth Holdings Corporation, priority 2002, dated 2006).
